Measurements from patent publication US20100314318A1, “HALOGENATED AMIDE BIOCIDAL COMPOUNDS AND METHODS FOR TREATING WATER SYSTEMS AT NEAR NEUTRAL TO HIGH PH” (priority 2009, published 2010).
Like-named read-outs stand apart in the source and are kept apart here.

What was measured:
[1] = tested on: Free Legionella; assay type: cell-based, Legionella pneumophila
[2] = tested on: amoeba (Acanthamoeba polypohaga) fed Legionella pneumophila (AfLp); assay type: cell-based; conditions: for Active concentration (ppm) required for complete kill (6 log reduction): Amoeba fed Legionella
[3] = tested on: bacteria isolated from Cooling Tower water; assay: Efficacy in sterile artificial Cooling Tower water (approx. pH 8.5); assay type: cell-based; conditions: 30° C.
[4] = tested on: Pseudomonas aeruginosa ATCC 10145; assay: Bactericidal efficacy in synthetic salts water pH 8.5; assay type: cell-based; conditions: for Dosage required for 3 log10 bacterial reduction (ppm, active): 37° C.; for long term bactericidal efficacy compared with DBNPA: after 48 hour incubation and rechallenge with P. aeruginosa cells
Experimental: A sterile synthetic salts water is prepared and inoculated with Pseudomonas aeruginosa ATCC 10145 at about 10^7 CFU/mL. The synthetic water is prepared to contain (in 1 liter deionized water) the following: CaCl2, 0.2203 g; MgSO4, 0.1847 g; and NaHCO3, 0.2033 g. The final pH of the synthetic cooling water is adjusted to 8.5. Aliquots of the cell suspension are then treated with biocides at selected dosage levels. The same contaminated water sample without biocide is used as control. After incubating at 37° C. for different time intervals, numbers of surviving bacteria are enumerated using a serial dilution method. After incubating for 24 hr, all cell suspensions are reinoculated with Pseudomonas aeruginosa ATCC 10145 at 10^6 CFU/mL. The efficacy results for […]

[5] = tested on: bacteria isolated from field; assay: Efficacy in semi-synthetic metal working fluid; assay type: cell-based; conditions: room temperature, MWF
[6] = tested on: bacteria in Cooling Tower water; assay: Efficacy in cooling tower water sample (about pH 8.3), serial dilution count; assay type: cell-based
[7] = tested on: four bacterial species (Pseudomonas aeruginosa, Klebsiella pneumoniae, Bacillus subtilis, Staphylococcus aureus); assay: Preservation of kaolin slurry Kaolux HS (pH 6.6); assay type: cell-based, bacteria
From the text: Two samples of kaolin slurries (Kaolux HS [particle size finer than 2 microns, 83.4%; 64.9% solids; pH 6.6] and Kaogloss [particle size finer than 2 microns, 90.7%; 70.1% solids; pH 6.3]), are obtained from Thiele Kaolin Company, Sandersville, Ga. Samples of the two slurries are inoculated with four bacterial species (described in Example 8), sampled to confirm the initial size of the bacterial community, and treated with selected concentrations of DBMAL. Samples for bacterial enumeration are collected after 24 hr and 48 hr incubation periods.

[8] = Stability against hydrolysis in buffered dilute solutions, HPLC
[9] = tested on: mixed species consortium of bacteria; assay: Preservation of 10% CaCO3 suspensions; conditions: 10 ppm, pH 7.0, 8.0, 9.0
[10] = tested on: bacterial consortium; assay: Preservation of calcium carbonate slurry Hydrocarb 90 (pH 8.7)
[11] = 48 hr, pH 8.5, reinoculated after 24 hr

O=CCCCC=O [Glutaraldehyde]
Active concentration (ppm) required for complete kill (6 log reduction) ([1]; 2 hours): 10 ppm | Active concentration (ppm) required for complete kill (6 log reduction) ([1]; 24 hours): 5 ppm | Active concentration (ppm) required for complete kill (6 log reduction) ([2]; 2 hours): 20 ppm | Active concentration (ppm) required for complete kill (6 log reduction) ([2]; 24 hours): 15 ppm | Minimum biocide dosage (ppm, active) needed for at least 3 log10 bacterial reduction ([3]; 1 h): 36.0 ppm | Minimum biocide dosage (ppm, active) needed for at least 3 log10 bacterial reduction ([3]; 3 h): 26.0 ppm | Minimum biocide dosage (ppm, active) needed for at least 3 log10 bacterial reduction ([3]; 24 h): 26.0 ppm | Minimum biocide dosage (ppm, active) needed for at least 3 log10 bacterial reduction ([3]; 48 h, reinoculated): 51.0 ppm | Minimum biocide dosage (ppm, active) needed for at least 3 log10 bacterial reduction ([3]; 72 h, reinoculated): 51.0 ppm | Minimum biocide dosage (ppm, active) needed for at least 3 log10 bacterial reduction ([3]; 96 h, reinoculated): 71.0 ppm

N#CC(Br)(Br)C(=O)NCCCO [DBCHA, 2,2-Dibromo-2-cyano-N-(3-hydroxypropyl)acetamide]
Dosage required for 3 log10 bacterial reduction (ppm, active) ([4]; 1 hr, pH 8.5): 4.4 ppm | Dosage required for 3 log10 bacterial reduction (ppm, active) ([4]; 3 hr, pH 8.5): 4.4 ppm | Dosage required for 3 log10 bacterial reduction (ppm, active) ([4]; 24 hr, pH 8.5): 9.9 ppm | Dosage required for 3 log10 bacterial reduction (ppm, active) [4, 11]: 33.3 ppm | long term bactericidal efficacy compared with DBNPA [4]: better long term efficacy than DBNPA

CCN1CN(CC)CN(CC)C1 [Triazine, 1,3,5-triethylhexahydro-1,3,5-triazine]
Minimum dosage (ppm, active) required for at least 3 log10 reduction in bacterial counts ([5]; 2 h): 1934 ppm | Minimum dosage (ppm, active) required for at least 3 log10 reduction in bacterial counts ([5]; 4 h): 1487 ppm | Minimum dosage (ppm, active) required for at least 3 log10 reduction in bacterial counts ([5]; 24 h): 1144 ppm | Minimum dosage (ppm, active) required for at least 3 log10 reduction in bacterial counts ([5]; 48 h): 1144 ppm | Minimum dosage (ppm, active) required for at least 3 log10 reduction in bacterial counts ([5]; 72 h): 1144 ppm | Minimum dosage (ppm, active) required for at least 3 log10 reduction in bacterial counts ([5]; 96 h): 1144 ppm

CCCCCCCC[N+](C)(C)CCCCCCCC.[Cl-] [Dioctyl dimethyl ammonium chloride]
Minimum biocide dosage (ppm, active) needed for at least 3 log10 bacterial reduction ([3]; 1 h): 29.0 ppm | Minimum biocide dosage (ppm, active) needed for at least 3 log10 bacterial reduction ([3]; 3 h): 29.0 ppm | Minimum biocide dosage (ppm, active) needed for at least 3 log10 bacterial reduction ([3]; 24 h): 56.0 ppm | Minimum biocide dosage (ppm, active) needed for at least 3 log10 bacterial reduction ([3]; 48 h, reinoculated): 56.0 ppm | Minimum biocide dosage (ppm, active) needed for at least 3 log10 bacterial reduction ([3]; 72 h, reinoculated): 79.0 ppm | Minimum biocide dosage (ppm, active) needed for at least 3 log10 bacterial reduction ([3]; 96 h, reinoculated): >79.0 ppm

NC(=O)C(Br)(Br)C(N)=O [DBMAL, 2,2-Dibromomalonamide]
Active concentration (ppm) required for complete kill (6 log reduction) ([1]; 2 hours): 6.25 ppm | Active concentration (ppm) required for complete kill (6 log reduction) ([1]; 24 hours): 1.56 ppm | Bacterial log10 reduction after biocide addition ([6]; 12.5 ppm active, 1 hr): 1.2 log10 | Bacterial log10 reduction after biocide addition ([6]; 12.5 ppm active, 48 hrs, re-inoculated): 5.2 log10 | Bacterial log10 reduction after biocide addition ([6]; 12.5 ppm active, 72 hrs, re-inoculated): 1.2 log10 | Bacterial log10 reduction after biocide addition ([6]; 12.5 ppm active, 96 hrs, re-inoculated): 0.8 log10 | Bacterial log10 reduction after biocide addition ([6]; 25 ppm active, 1 hr): 4.3 log10 | Bacterial log10 reduction after biocide addition ([6]; 25 ppm active, 3 hr): >=5.7 log10 | Bacterial log10 reduction after biocide addition ([6]; 25 ppm active, 24 hrs): >=6.3 log10 | Bacterial log10 reduction after biocide addition ([6]; 25 ppm active, 48 hrs, re-inoculated): 6.0 log10 | Bacterial log10 reduction after biocide addition ([6]; 25 ppm active, 72 hrs, re-inoculated): 3.0 log10 | Bacterial log10 reduction after biocide addition ([6]; 25 ppm active, 96 hrs, re-inoculated): 3.2 log10 | Bacterial log10 reduction after biocide addition ([6]; 50 ppm active, 1 hr): >=5.3 log10 | Bacterial log10 reduction after biocide addition ([6]; 50 ppm active, 3 hr): 5.5 log10 | Bacterial log10 reduction after biocide addition ([6]; 50 ppm active, 24 hrs): >=6.3 log10 | Bacterial log10 reduction after biocide addition ([6]; 50 ppm active, 48 hrs, re-inoculated): >=6.3 log10 | Bacterial log10 reduction after biocide addition ([6]; 50 ppm active, 72 hrs, re-inoculated): 3.8 log10 | Bacterial log10 reduction after biocide addition ([6]; 50 ppm active, 96 hrs, re-inoculated): 4.2 log10 | duration of effectiveness (>3 log10 killing) compared with DBNPA ([6]; same active concentration of 12.5 ppm): one day more | duration of effectiveness (>3 log10 killing) compared with DBNPA ([6]; same active concentration of 50 ppm and 25 ppm): two days more | change in numbers of viable bacteria (FIG. 3) ([7]; 100 ppm to 150 ppm, 48 hr contact time): decrease slightly | decrease in viable bacteria (FIG. 3) ([7]; 175 ppm): approximately one | reduction in viable bacteria (FIG. 3) ([7]; concentrations higher than 175 ppm): at least five | Calculated Percent Reduction of the Active Ingredient ([8]; pH 6.9, T = 30 C., 48 hours): 0% | Calculated Percent Reduction of the Active Ingredient ([8]; pH 6.9, T = 30 C., 72 hours): 0% | Calculated Percent Reduction of the Active Ingredient ([8]; pH 8, T = −1 C., 48 hours): 0% | Calculated Percent Reduction of the Active Ingredient ([8]; pH 8, T = −1 C., 72 hours): 0% | Calculated Percent Reduction of the Active Ingredient ([8]; pH 8, T = −1 C., 96 hours): 0% | Calculated Percent Reduction of the Active Ingredient ([8]; pH 9, T = −1 C., 48 hours): 21% | Calculated Percent Reduction of the Active Ingredient ([8]; pH 9, T = −1 C., 72 hours): 12% | Calculated Percent Reduction of the Active Ingredient ([8]; pH 9, T = −1 C., 96 hours): 24% | Minimum dosage (ppm, active) required for at least 3 log10 reduction in bacterial counts ([5]; 2 h): 57 ppm | Minimum dosage (ppm, active) required for at least 3 log10 reduction in bacterial counts ([5]; 4 h): 44 ppm | Minimum dosage (ppm, active) required for at least 3 log10 reduction in bacterial counts ([5]; 24 h): 44 ppm | Minimum dosage (ppm, active) required for at least 3 log10 reduction in bacterial counts ([5]; 48 h): 34 ppm | Minimum dosage (ppm, active) required for at least 3 log10 reduction in bacterial counts ([5]; 72 h): 26 ppm | Minimum dosage (ppm, active) required for at least 3 log10 reduction in bacterial counts ([5]; 96 h): 34 ppm | Dosage required for 3 log10 bacterial reduction (ppm, active) ([4]; 1 hr, pH 8.5): 14.8 ppm | Dosage required for 3 log10 bacterial reduction (ppm, active) ([4]; 3 hr, pH 8.5): 6.6 ppm | Dosage required for 3 log10 bacterial reduction (ppm, active) ([4]; 24 hr, pH 8.5): 6.6 ppm | Dosage required for 3 log10 bacterial reduction (ppm, active) [4, 11]: 6.6 ppm | long term bactericidal efficacy compared with DBNPA [4]: better than DBNPA | bacterial counts (FIG. 5) ([9]; 2-hr contact): increased inhibition of the bacteria at pH 9.0 versus pH 7.0 and 8.0 | bacterial counts (FIG. 5) ([9]; 24 hr contact, limit of detection): 1.0 log10 | Active concentration (ppm) required for complete kill (6 log reduction) ([2]; 2 hours): 12.5 ppm | Active concentration (ppm) required for complete kill (6 log reduction) ([2]; 24 hours): 3.12 ppm | level needed for 6 log kill of AfLp relative to that needed for free cells ([2]; corresponding time points (2 and 24 hours)): about twice | change in populations of bacteria (FIG. 6) ([10]; 5 ppm, 24-hr contact): decrease relatively little | decrease in numbers of bacteria (FIG. 6) ([10]; 10 ppm, 24-hr contact): more than 2.5 orders of magnitude | difference in numbers of bacteria versus samples with 50 ppm DBNPA (FIG. 7) ([10]; 20 ppm DBMAL, 24-hr contact time): approximately one-quarter | single dose efficacy comparison (FIG. 7) ([10]; single dose of 20 ppm, 24-hr contact time): as effective as 50 ppm DBNPA or 16 ppm CMIT | Minimum biocide dosage (ppm, active) needed for at least 3 log10 bacterial reduction ([3]; 1 h): 15.0 ppm | Minimum biocide dosage (ppm, active) needed for at least 3 log10 bacterial reduction ([3]; 3 h): 11.0 ppm | Minimum biocide dosage (ppm, active) needed for at least 3 log10 bacterial reduction ([3]; 24 h): 5.0 ppm | Minimum biocide dosage (ppm, active) needed for at least 3 log10 bacterial reduction ([3]; 48 h, reinoculated): 5.0 ppm | Minimum biocide dosage (ppm, active) needed for at least 3 log10 bacterial reduction ([3]; 72 h, reinoculated): 5.0 ppm | Minimum biocide dosage (ppm, active) needed for at least 3 log10 bacterial reduction ([3]; 96 h, reinoculated): 15.0 ppm

CCCCCCCCCC[N+](C)(C)CCCCCCCCCC.[Cl-] [DDAC, didecyl dimethyl ammonium chloride]
Active concentration (ppm) required for complete kill (6 log reduction) ([1]; 2 hours): 20 ppm | Active concentration (ppm) required for complete kill (6 log reduction) ([1]; 24 hours): 15 ppm | Active concentration (ppm) required for complete kill (6 log reduction) ([2]; 2 hours): 60 ppm | Active concentration (ppm) required for complete kill (6 log reduction) ([2]; 24 hours): 40 ppm

CC1(C)C(=O)N(Cl)C(=O)N1Br [BCDMH, 1-Bromo-3-chloro-5,5-dimethylhydantoin]
Minimum biocide dosage (ppm, active) needed for at least 3 log10 bacterial reduction ([3]; 1 h): 7.0 ppm | Minimum biocide dosage (ppm, active) needed for at least 3 log10 bacterial reduction ([3]; 3 h): 26.0 ppm | Minimum biocide dosage (ppm, active) needed for at least 3 log10 bacterial reduction ([3]; 24 h): >70.0 ppm | Minimum biocide dosage (ppm, active) needed for at least 3 log10 bacterial reduction ([3]; 48 h, reinoculated): >70.0 ppm | Minimum biocide dosage (ppm, active) needed for at least 3 log10 bacterial reduction ([3]; 72 h, reinoculated): >70.0 ppm | Minimum biocide dosage (ppm, active) needed for at least 3 log10 bacterial reduction ([3]; 96 h, reinoculated): >70.0 ppm
